For orientation: IC50 means the point on the concentration scale where inhibition reaches its midpoint. A high value points to a need for much substance.

The source of these data is patent US8283353B2, “Fused ring compound and use thereof” (Takeda Pharmaceutical Company Limited, priority 2009, dated 2012).

One assay concerns the target T1, human AT1 receptor (Homo sapiens, UniProt P30556).
T1 construct: expressed in transfected cells; membrane fraction
T1 sequence (P30556 1-359): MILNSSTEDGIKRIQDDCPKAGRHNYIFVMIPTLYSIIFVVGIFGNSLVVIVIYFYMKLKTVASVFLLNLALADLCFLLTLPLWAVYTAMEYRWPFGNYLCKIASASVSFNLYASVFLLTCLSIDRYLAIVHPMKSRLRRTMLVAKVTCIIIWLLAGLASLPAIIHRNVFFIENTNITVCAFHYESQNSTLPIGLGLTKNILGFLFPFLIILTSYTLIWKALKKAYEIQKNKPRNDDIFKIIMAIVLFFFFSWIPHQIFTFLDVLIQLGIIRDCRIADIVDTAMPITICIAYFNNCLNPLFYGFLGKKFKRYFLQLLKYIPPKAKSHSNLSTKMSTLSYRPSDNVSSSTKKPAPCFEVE
Nature of the assay: AT1 receptor antagonistic activity: [125I]-angiotensin II binding assay on human AT1 receptor-expressing CHO-K1 cellular membrane fraction. The note with it: 22.5 pM [125I]-angiotensin II, 1 hr room temperature. The gist of the method: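 Competition binding used radiolabelled angiotensin II on stably transfected CHO-K1 membrane fractions in Tris pH 7.4/MgCl2 buffer, optionally containing 0.3 mg/mL fatty acid-free BSA, 1 hr at room temperature. Filtration onto GF/C separated bound tracer, and nonspecific binding was measured with candesartan.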

Another assay has as its target T2, human PPARγ (Homo sapiens, UniProt P37231).
T2 construct: expressed in transfected cells
T2 sequence (P37231 1-477 isoform P37231-2): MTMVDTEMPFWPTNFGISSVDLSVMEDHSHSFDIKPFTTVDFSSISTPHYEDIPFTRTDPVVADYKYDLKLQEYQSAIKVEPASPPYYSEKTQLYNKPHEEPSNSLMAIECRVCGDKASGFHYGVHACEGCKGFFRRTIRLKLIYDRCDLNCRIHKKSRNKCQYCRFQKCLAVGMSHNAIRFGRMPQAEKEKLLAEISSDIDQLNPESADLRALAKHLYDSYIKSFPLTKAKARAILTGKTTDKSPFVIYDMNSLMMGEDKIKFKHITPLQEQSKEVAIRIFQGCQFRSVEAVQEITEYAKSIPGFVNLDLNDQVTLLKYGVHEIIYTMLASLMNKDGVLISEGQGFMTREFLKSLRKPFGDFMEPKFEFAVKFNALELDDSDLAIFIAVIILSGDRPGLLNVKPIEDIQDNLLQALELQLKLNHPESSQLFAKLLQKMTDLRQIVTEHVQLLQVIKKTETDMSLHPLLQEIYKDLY
T2 sequence (P19793 1-462 partner): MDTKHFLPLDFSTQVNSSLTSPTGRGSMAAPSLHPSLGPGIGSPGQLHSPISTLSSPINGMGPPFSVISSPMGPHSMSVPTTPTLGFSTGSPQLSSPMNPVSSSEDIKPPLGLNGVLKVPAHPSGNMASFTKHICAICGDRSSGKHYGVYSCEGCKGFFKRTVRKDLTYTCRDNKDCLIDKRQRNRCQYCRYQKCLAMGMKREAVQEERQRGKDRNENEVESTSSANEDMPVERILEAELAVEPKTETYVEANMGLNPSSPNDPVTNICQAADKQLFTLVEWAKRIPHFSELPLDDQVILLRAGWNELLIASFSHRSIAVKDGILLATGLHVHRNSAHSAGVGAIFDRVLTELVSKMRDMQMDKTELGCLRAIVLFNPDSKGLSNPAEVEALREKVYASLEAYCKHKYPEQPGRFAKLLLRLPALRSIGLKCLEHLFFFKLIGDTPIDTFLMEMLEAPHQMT
The assay is described as follows: PPARγ agonistic activity: luciferase reporter assay in PPARγ:RXRα:4ERPP/CHO-K1 cells. The assay is classed as cell-based. The note with it: CHO-K1, test compound 10^−6 M; luciferase activity of control compound X (1 μM) = 100%, non-administration group = 0%. The gist of the method: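 CHO-K1 cells stably carrying hPPARγ/RXRα and a 4ERPP luciferase reporter, dosed with test compound for 1 day at 37 °C in Ham's F12 with 0.1% fatty acid-free BSA. Luciferase read by luminescence; activity given as % of 1 μM control compound X (100%) versus untreated (0%).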
For orientation: A reporter such as luciferase makes a cellular process visible.

Compound `CCCc1c(Cc2ccc(-c3ccccc3-c3noc(=O)[nH]3)cc2)c(=O)n([C@H]2CC[C@H](C(=O)OCC)CC2)c2ncnn12` [Example 168, ethyl trans-4-[5-oxo-6-{[2′-(5-oxo-4,5-dihydro-1,2,4-oxadiazol-3-yl)biphenyl-4-yl]methyl}-7-propyl[1,2,4]triazolo[1,5-a]pyrimidin-4(5H)-yl]cyclohexanecarboxylate] returned an IC50 on human AT1 receptor of 1.4 nM. Further, the activation at 1 µM on human PPARγ was found to be 54%.
Taken in the same sequence, the figures for `CCCc1c(Cc2ccc(-c3ccccc3-c3noc(=O)[nH]3)cc2)c(=O)n([C@H]2CC[C@H](Oc3ccc(O)cc3)CC2)c2ncnn12` [Example 273, 4-[trans-4-(4-hydroxyphenoxy)cyclohexyl]-6-{[2′-(5-oxo-4,5-dihydro-1,2,4-oxadiazol-3-yl)biphenyl-4-yl]methyl}-7-propyl[1,2,4]triazolo[1,5-a]pyrimidin-5(4H)-one] were 1.7 nM and 48%.
The compound `CCCc1c(Cc2ccc(-c3ccccc3-c3noc(=O)[nH]3)cc2)c(=O)n(C(C)/C(C)=N/OCC)c2nc(C)nn12` (stereo not drawn) [Example 114, 4-[(2E)-2-(ethoxyimino)-1-methylpropyl]-2-methyl-6-{[2′-(5-oxo-4,5-dihydro-1,2,4-oxadiazol-3-yl)biphenyl-4-yl]methyl}-7-propyl[1,2,4]triazolo[1,5-a]pyrimidin-5(4H)-one] yielded an IC50 at human AT1 receptor of 2 nM. Besides, at human PPARγ, the activation at 1 µM came out at 16%.
`CCCc1c(Cc2ccc(-c3ccccc3-c3noc(=O)[nH]3)cc2)c(=O)n([C@H]2CC[C@H](OC/C(C)=N/OC)CC2)c2ncnn12` [Example 216, 4-(trans-4-{[(2E)-2-(methoxyimino)propyl]oxy}cyclohexyl)-6-{[2′-(5-oxo-4,5-dihydro-1,2,4-oxadiazol-3-yl)biphenyl-4-yl]methyl}-7-propyl[1,2,4]triazolo[1,5-a]pyrimidin-5(4H)-one] came in with an IC50 on human AT1 receptor of 1.6 nM. This compound came in with an activation at 1 µM at human PPARγ of 23%.
Taken in the same sequence, the figures for `CCCc1c(Cc2ccc(-c3ccccc3-c3noc(=O)[nH]3)cc2F)c(=O)n([C@H]2CC[C@H](OCC(C)(C)O)CC2)c2ncnn12` [Example 233, 6-{[3-fluoro-2′-(5-oxo-4,5-dihydro-1,2,4-oxadiazol-3-yl)biphenyl-4-yl]methyl}-4-[trans-4-(2-hydroxy-2-methylpropoxy)cyclohexyl]-7-propyl[1,2,4]triazolo[1,5-a]pyrimidin-5(4H)-one] were 1.9 nM and 26%.
At human AT1 receptor, `CCCc1c(Cc2ccc(-c3ccccc3-c3noc(=O)[nH]3)cc2)c(=O)n([C@H]2CC[C@@](C)(O)CC2)c2ncnn12` [Example 275, 4-(cis-4-hydroxy-4-methylcyclohexyl)-6-{[2′-(5-oxo-4,5-dihydro-1,2,4-oxadiazol-3-yl)biphenyl-4-yl]methyl}-7-propyl[1,2,4]triazolo[1,5-a]pyrimidin-5(4H)-one] registered an IC50 of 2.5 nM. In addition, the activation at 1 µM on human PPARγ is 31%.
`CCCc1c(Cc2ccc(-c3ccccc3-c3noc(=O)[nH]3)cc2)c(=O)n(C2CCC3(CC2)O[C@H]2COC[C@H]2O3)c2ncnn12` (stereo partly drawn) [Example 293, 6-{[2′-(5-oxo-4,5-dihydro-1,2,4-oxadiazol-3-yl)biphenyl-4-yl]methyl}-7-propyl-4-(tetrahydrospiro[cyclohexane-1,2′-furo[3,4-d][1,3]dioxol]-4-yl)[1,2,4]triazolo[1,5-a]pyrimidin-5(4H)-one] displayed an IC50 on human AT1 receptor of 2.3 nM. On human PPARγ, this compound registered an activation at 1 µM of 28%.
Compound `CCCc1c(Cc2ccc(-c3ccccc3-c3noc(=O)[nH]3)cc2)c(=O)n([C@H]2CC[C@H](OCC(C)(O)C(F)(F)F)CC2)c2ncnn12` (stereo partly drawn) [Example 335, 6-{[2′-(5-oxo-4,5-dihydro-1,2,4-oxadiazol-3-yl)biphenyl-4-yl]methyl}-7-propyl-4-[trans-4-(3,3,3-trifluoro-2-hydroxy-2-methylpropoxy)cyclohexyl][1,2,4]triazolo[1,5-a]pyrimidin-5(4H)-one] came in with an IC50 at human AT1 receptor of 1.9 nM. Further, the activation at 1 µM at human PPARγ came to 19%.
On to `CCCc1c(Cc2ccc(-c3ccccc3-c3noc(=O)[nH]3)cc2)c(=O)n(C2C=CCCC2)c2nc(C)nn12` (stereo not drawn) [Example 74, 4-(cyclohex-2-en-1-yl)-2-methyl-6-{[2′-(5-oxo-4,5-dihydro-1,2,4-oxadiazol-3-yl)biphenyl-4-yl]methyl}-7-propyl[1,2,4]triazolo[1,5-a]pyrimidin-5(4H)-one], for which the IC50 on human AT1 receptor was found to be 2.1 nM. Further, the activation at 1 µM at human PPARγ is 25%.
On to `CCCc1c(Cc2ccc(-c3ccccc3-c3noc(=O)[nH]3)cc2)c(=O)n(C2CCC3(CC2)OCCO3)c2nc(C)nn12` [Example 292, 4-(1,4-dioxaspiro[4.5]dec-8-yl)-2-methyl-6-{[2′-(5-oxo-4,5-dihydro-1,2,4-oxadiazol-3-yl)biphenyl-4-yl]methyl}-7-propyl[1,2,4]triazolo[1,5-a]pyrimidin-5(4H)-one], for which the IC50 on human AT1 receptor came to 1.9 nM. Moreover, the activation at 1 µM at human PPARγ came to 46%.
On to `CCCc1c(Cc2ccc(-c3ccccc3-c3noc(=O)[nH]3)cc2)c(=O)n(CC(C)(C)COC)c2nc(C)nn12` [Example 73, 4-(3-methoxy-2,2-dimethylpropyl)-2-methyl-6-{[2′-(5-oxo-4,5-dihydro-1,2,4-oxadiazol-3-yl)biphenyl-4-yl]methyl}-7-propyl[1,2,4]triazolo[1,5-a]pyrimidin-5(4H)-one], for which, at human AT1 receptor, the IC50 came to 1.5 nM. The compound also showed an activation at 1 µM on human PPARγ of 20%.
For `CCCc1c(Cc2ccc(-c3ccccc3-c3nnn[nH]3)cc2)c(=O)n([C@H]2CC[C@H](c3cnco3)CC2)c2ncnn12` [Example 185, 4-[trans-4-(1,3-oxazol-5-yl)cyclohexyl]-7-propyl-6-{[2′-(1H-tetrazol-5-yl)biphenyl-4-yl]methyl}[1,2,4]triazolo[1,5-a]pyrimidin-5(4H)-one], at human AT1 receptor, the IC50 is 2.3 nM. The compound further had an activation at 1 µM at human PPARγ of 22%.
On human AT1 receptor, `CCCc1c(Cc2ccc(-c3ccccc3-c3noc(=O)[nH]3)cc2F)c(=O)n(C2CCCOC2)c2ncnn12` (stereo not drawn) [Example 121, 6-{[3-fluoro-2′-(5-oxo-4,5-dihydro-1,2,4-oxadiazol-3-yl)biphenyl-4-yl]methyl}-7-propyl-4-(tetrahydro-2H-pyran-3-yl)[1,2,4]triazolo[1,5-a]pyrimidin-5(4H)-one] registered an IC50 of 1.9 nM. This compound also showed an activation at 1 µM on human PPARγ of 31%.
On to `CCCc1c(Cc2ccc(-c3ccccc3-c3noc(=O)[nH]3)cc2F)c(=O)n(C2CCOC(C)(C)C2)c2nc(C)nn12` (stereo not drawn) [Example 136, 4-(2,2-dimethyltetrahydro-2H-pyran-4-yl)-6-{[3-fluoro-2′-(5-oxo-4,5-dihydro-1,2,4-oxadiazol-3-yl)biphenyl-4-yl]methyl}-2-methyl-7-propyl[1,2,4]triazolo[1,5-a]pyrimidin-5(4H)-one], for which, on human AT1 receptor, the IC50 came out at 1.3 nM. The same compound returned an activation at 1 µM on human PPARγ of 17%.
Taken in the same sequence, the figures for `C=C1COC2(CCC(n3c(=O)c(Cc4ccc(-c5ccccc5-c5noc(=O)[nH]5)cc4)c(CCC)n4ncnc34)CC2)OC1` [Example 285, 4-(3-methylidene-1,5-dioxaspiro[5.5]undec-9-yl)-6-{[2′-(5-oxo-4,5-dihydro-1,2,4-oxadiazol-3-yl)biphenyl-4-yl]methyl}-7-propyl[1,2,4]triazolo[1,5-a]pyrimidin-5(4H)-one] were 3.1 nM and 34%.
